Laboratory results published in PMC5923123, “In Vitro and In Vivo Efficacy of a Novel and Long-Acting Fungicidal Azole, PC1244, on Aspergillus fumigatus Infection” (Antimicrobial Agents and Chemotherapy, 2018).
Values after ≈ are worked out from the molar mass of the structure shown.

Key:
A. fumigatus NCPF2010 = experiment: EUCAST broth microdilution growth inhibition (OD 530 nm, 384-well); format: cell-based; conditions: Aspergillus fumigatus, strain NCPF2010 (ITC-susceptible), 48 h, range tested 0.002 to 1 μg/ml
Protocol: (§1) The antifungal activities of the test compounds against A. fumigatus strains (itraconazole [ITC]-susceptible strains NCPF2010, AF294, and AF293; ITC-resistant strains AF72 and AF91) were calculated from growth curves generated by spectrophotometric analysis and compared to the activities against positive and negative controls.

A. fumigatus AF293 = experiment: as above; format: cell-based; conditions: Aspergillus fumigatus, strain AF293 (ITC-susceptible), 48 h
Protocol: as §1

A. fumigatus AF91 = experiment: as above; format: cell-based; conditions: Aspergillus fumigatus, strain AF91 (ITC-resistant), 48 h
Protocol: as §1

A. fumigatus AF72 = experiment: as above; format: cell-based; conditions: Aspergillus fumigatus, strain AF72 (ITC-resistant), 48 h
Protocol: as §1

A. fumigatus AF294 = experiment: as above; format: cell-based; conditions: Aspergillus fumigatus, strain AF294 (ITC-susceptible), 48 h
Protocol: as §1

[1] = test system: A. fumigatus (ATCC 13073 [strain NIH 5233]); experiment: MIC against the strain used in vivo; format: cell-based; conditions: Aspergillus fumigatus, ATCC13073; strain ATCC 13073; read-out: MIC
A. fumigatus isolates = test system: A. fumigatus isolates; design: method as in PMID 12202554; conditions: MFC = lowest dilution yielding less than 3 colonies; cited from earlier work

With `C[C@@H]1[C@H](O)[C@@H](C)/C=C/C=C/C=C/C=C/C=C/C=C/C=C/[C@H](O[C@@H]2O[C@H](C)[C@@H](O)[C@H](N)[C@@H]2O)C[C@@H]2O[C@](O)(C[C@@H](O)C[C@@H](O)[C@H](O)CC[C@@H](O)C[C@@H](O)CC(=O)O[C@H]1C)C[C@H](O)[C@H]2C(=O)O` [Amphotericin B, amphotericin B] the IC50 (A. fumigatus NCPF2010) was 0.2 µg/mL (≈ 0.216 µM), the IC90 (A. fumigatus NCPF2010) was 0.62 µg/mL (≈ 0.671 µM) and the IC50 (A. fumigatus AF293) was 0.24 µg/mL (≈ 0.26 µM). The IC90 (A. fumigatus AF293) was 0.85 µg/mL (≈ 0.92 µM), the IC50 (A. fumigatus AF91) was 0.28 µg/mL (≈ 0.303 µM) and the IC90 (A. fumigatus AF91) was 0.75 µg/mL (≈ 0.812 µM). For the same compound, the IC50 (A. fumigatus AF72) was 0.12 µg/mL (≈ 0.13 µM), the IC90 (A. fumigatus AF72) was 0.42 µg/mL (≈ 0.455 µM) and the IC50 (A. fumigatus AF294) was 0.21 µg/mL (≈ 0.227 µM). For the same compound, the IC90 (A. fumigatus AF294) was 0.79 µg/mL (≈ 0.855 µM).

Work on `CC[C@H](C)C[C@H](C)CCCCCCCCC(=O)N[C@H]1C[C@@H](O)[C@@H](NCCN)NC(=O)[C@@H]2[C@@H](O)CCN2C(=O)[C@H]([C@H](O)CCN)NC(=O)[C@H]([C@H](O)[C@@H](O)c2ccc(O)cc2)NC(=O)[C@@H]2C[C@@H](O)CN2C(=O)[C@H]([C@@H](C)O)NC1=O` [Caspofungin, caspofungin] yielded an IC50 (A. fumigatus NCPF2010) of 0.065 µg/mL (≈ 0.0595 µM), an IC90 (A. fumigatus NCPF2010) of over 1 µg/mL and an IC50 (A. fumigatus AF293) of over 1 µg/mL. For the same compound, the IC90 (A. fumigatus AF293) was over 1 µg/mL, the IC50 (A. fumigatus AF91) was 0.11 µg/mL (≈ 0.101 µM) and the IC90 (A. fumigatus AF91) was over 1 µg/mL. The IC50 (A. fumigatus AF72) was 0.065 µg/mL (≈ 0.0595 µM), the IC90 (A. fumigatus AF72) was over 1 µg/mL and the IC50 (A. fumigatus AF294) was over 1 µg/mL. The IC90 (A. fumigatus AF294) was over 1 µg/mL.

Compound `CCC(C)n1ncn(-c2ccc(N3CCN(c4ccc(OCC5COC(Cn6cncn6)(c6ccc(Cl)cc6Cl)O5)cc4)CC3)cc2)c1=O` (centres unmarked) [Itraconazole, itraconazole] has an MIC [1] of 0.5 µg/mL (≈ 0.709 µM), an IC50 (A. fumigatus NCPF2010) of 0.037 µg/mL (≈ 0.0524 µM) and an IC90 (A. fumigatus NCPF2010) of 0.054 µg/mL (≈ 0.0765 µM). The IC50 (A. fumigatus AF293) was 0.032 µg/mL (≈ 0.0453 µM), the IC90 (A. fumigatus AF293) was 0.23 µg/mL (≈ 0.326 µM) and the IC50 (A. fumigatus AF91) was 0.22 µg/mL (≈ 0.312 µM). It also gave an IC90 (A. fumigatus AF91) of over 1 µg/mL, an IC50 (A. fumigatus AF72) of 0.31 µg/mL (≈ 0.439 µM) and an IC90 (A. fumigatus AF72) of over 1 µg/mL. For the same compound, the IC50 (A. fumigatus AF294) was 0.041 µg/mL (≈ 0.0581 µM), the IC90 (A. fumigatus AF294) was 0.052 µg/mL (≈ 0.0737 µM) and the “range of MFCs for inhibition of 90% of isolates tested (MFC90)” value (A. fumigatus isolates) was 0.2 to 4 µg/mL.
